Experiments:
Format in all cases: cell-based
SW620 Yap KO cells = test: Viability assay in SW620 Yap KO (Yap independent) cells, CyQUANT; conditions: Homo sapiens, SW-620, SW620 YAP and TAZ knocked out (YAP independent), 96 hour incubation
Protocol: (§1) Viability Assay in NCI-H226 (Yap-Dependent) and SW620 Yap KO (Yap Independent) Cells
(§2) The ability of YAP-TEAD inhibitors to inhibit tumor cell growth was evaluated using two different cell lines: NCI-H226, which is a YAP dependent cell line, and SW620 cells, where YAP and TAZ were knocked out using CRISPR to generate a YAP independent cell line.
(§3) For the assay, cells were treated in duplicates with the test compounds in a 10-point dose, 1:3 dilution steps, with the top concentration starting at 30 μM (final concentration in assay). After a 96 hour incubation at 37° C., 95% rH, and 5% CO2, a cell-permeant DNA-binding dye that stains only healthy cells (CyQUANT®, Promega) was added to the cells, allowing the quantification of cell viability.
(§4) Cell Media: The NCI-H226 cells were cultured in the following media: RPMI 1640, +10% FBS, +1× GlutaMAX, +10 mM HEPES, +0.5% Pen/Strep. The SW620-KO cells were cultured in the following media: DMEM/F-12, +10% FBS, +1× GlutaMAX, +10 mM HEPES, +0.5% Pen/Strep.
(§5) Reagents: The reagents used are listed below:
(§6) Cell culture: The cells were examined using an inverted microscope to check for health, cell density, etc. To dissociate adherent cells, the monolayer of cells was washed once with pre-warmed PBS. After removing the PBS, 3 ml pre-warmed Accutase was added to a F75 flask, dispersed evenly and the flask was allowed to sit in incubator for ˜4-5 minutes.
(§7) When a single cell suspension was obtained, 7 ml of prewarmed growth media was added and resuspended with the cells. The cell suspension was transferred to a sterile 15 ml conical centrifuge tube, and spun for 5 min at 300×g, RT. The supernatant was discarded and the pellet was resuspended in 10 ml of pre-warmed growth media.
(§8) The total cell count was determined, and 20 μl of the desired cell number was added to each well of a 384 well plate using a Multidrop Combi. The plates were then incubated for 24 hours at 37° C., 95% rH, and 5% CO2.
(§9) Compound treatment: 24 hours after seeding, the cells were treated with compounds.
(§10) A 1:333 dilution of compounds, diluted in DMSO, was made to get a final concentration of 0.3% DMSO per well. To transfer the compounds to the assay plate, 120 nl was shot from Labcyte low dead volume plates to the cell plates containing 20 μl media/well with the ECHO 555 liquid handling system. After treatment, the cells were fed with 20 μl fresh pre-warmed assay media using a Multidrop combi.
(§11) The assay plates were then incubated for 96 h at 37° C., 95% rH, and 5% CO2.
(§12) 96 h after treatment 30 μl of CyQuant® reagent was added to the assay plates using a Multidrop combi in the dark. The plates were then incubated for 1 hour at 37° C., 95% rH and 5% CO2. Thereafter, the assay plates were removed from the incubator and allowed to equilibrate to RT for 30 min in the dark without lid. Finally, they were measured using an EnVision microplate reader with a FITC bottom read program.

NCI-H226 cells = test: Viability assay in NCI-H226 (Yap-dependent) cells, CyQUANT; conditions: Homo sapiens, NCI-H226 YAP dependent cell line, 96 hour incubation
Protocol: as §1, §2, §3, §4, §5, §6, §7, §8, §9, §10, §11, §12

YAP-TEAD interaction = test: SK-HEP-1 reporter assay (8x TEAD responsive elements driving NanoLuc luciferase); conditions: Homo sapiens, SK-HEP1, SK-HEP-1 cells, 24 hour incubation
Protocol: To identify inhibitors of YAP-TEAD interaction, 8× TEAD responsive elements driving the NanoLuc® luciferase gene were stably integrated into SK-HEP-1 cells (ECACC #: 91091816).
For the assay, cells were treated in duplicates with the test compounds in a 10-point dose, with the top concentration starting at 30 μM (final concentration in assay). After a 24 hour incubation at 37° C., 95% rH, and 5% CO2, a luciferase substrate/lysis reagent mix (NanoGlo™, Promega) was added to the cells, allowing the quantification of cellular luciferase activity.
Cell Media: The cells were cultured in the following media: MEM, +10% FBS, +1× GlutaMAX, +1 mM Sodium-Pyruvate, +100 μM Non-essential amino acids, +0.1 mg/ml Hygromycin. The media used for the assay was: MEM (w/o Phenol Red), +10% FBS, +1× GlutaMAX, +1 mM Sodium-Pyruvate, +100 μM Non-essential amino acids, +0.5% Pen/Strep
as §5
as §6, with “health and” for “health,”, “density.” for “density, etc.”, “Accutase®” for “Accutase”
as §7, §8, §9, §10
The assay plates were then incubated for another 24 h at 37° C., 95% rH, and 5% CO2.
Luciferase readout: 24 h after treatment, the plates were taken out of the incubator and were allowed to equilibrate to RT. 30 μl of NanoGlo® reagent was added to the plates in the dark. Plates were shaken for 20 min on a Teleshake (˜1500 rpm) in the dark. The luminescence was then measured using an EnVision microplate reader. The IC50 values were generated using Genedata Screener®.

[1] = n.d. (x) = not detectable below threshold x
[2] = number, or n.d. (x) = not detectable below threshold x

SMILES | IC50 (SW620 Yap KO cells; [1]) [nM] | IC50 (NCI-H226 cells; group symbols) [nM] | IC50 (YAP-TEAD interaction; [2]) [nM] | IC50 (YAP-TEAD interaction; group symbols) [nM] | IC50 (SW620 Yap KO cells; group symbols) [nM] | IC50 (NCI-H226 cells; printed number) [nM]
Cn1cc2c3cc(C(=O)N=[S@@](C)(=O)CCCO)sc3n(-c3ccc(C(F)(F)F)cc3)c2n1 (single isomer, unassigned) [Compound 61] |  | 100 to 1000 | > 9500 |  |  | 
CNC(=O)c1cc2c(s1)c1cn(C)nc1n2-c1ccc(C(F)(F)F)cc1 [Compound 1, N,10-dimethyl-7-[4-(trifluoromethyl)phenyl]-3-thia-7,9,10-triazatricyclo[6.3.0.0^2,6]undeca-1(11),2(6),4,8-tetraene-4-carboxamide] |  | > 10000 |  | 100 to 10000 |  | 
Cn1cc2c3sc(C(=O)O)cc3n(-c3ccc(C(F)(F)F)cc3)c2n1 [Compound 2, 10-methyl-7-[4-(trifluoromethyl)phenyl]-3-thia-7,9,10-triazatricyclo[6.3.0.0^2,6]undeca-1(11),2(6),4,8-tetraene-4-carboxylic acid] |  | 100 to 1000 |  | 10 to 100 |  | 
Cn1nc2c3sc(C(=O)O)cc3n(-c3ccc(C(F)(F)F)cc3)c2n1 [Compound 3, 4-methyl-7-[4-(trifluoromethyl)phenyl]-11-thia-3,4,5,7-tetraazatricyclo[6.3.0.0^2,6]undeca-1(8),2,5,9-tetraene-10-carboxylic acid] |  | 100 to 1000 |  | 10 to 100 |  | 
CNC(=O)c1cc2c(s1)c1nn(C)nc1n2-c1ccc(C(F)(F)F)cc1 [Compound 5, N,4-dimethyl-7-[4-(trifluoromethyl)phenyl]-11-thia-3,4,5,7-tetraazatricyclo[6.3.0.0^2,6]undeca-1(8),2,5,9-tetraene-10-carboxamide] |  | 1000 to 10000 |  | > 10000 |  | 
Cn1cc2c3sc(C(=O)O)cc3n(-c3ccc(OC(F)F)cc3)c2n1 [Compound 10, 7-[4-(difluoromethoxy)phenyl]-10-methyl-3-thia-7,9,10-triazatricyclo[6.3.0.0^2,6]undeca-1(11),2(6),4,8-tetraene-4-carboxylic acid] | > 30000 | 100 to 1000 |  | 10 to 100 |  | 
Cn1cc2c3cc(C(=O)N=S(C)(C)=O)sc3n(-c3ccc(C(F)(F)F)cc3)c2n1 [Compound 34, N-[dimethyl(oxo)-λ^6-sulfanylidene]-4-methyl-7-[4-(trifluoromethyl)phenyl]-9-thia-4,5,7-triazatricyclo[6.3.0.0^2,6]undeca-1(8),2,5,10-tetraene-10-carboxamide] |  | 100 to 1000 |  | 100 to 10000 |  | 
Cn1cc2c3cc(C(=O)O)sc3n([C@H]3CC[C@@H](C(F)(F)F)CC3)c2n1 [Compound 51, 4-methyl-7-[(1s,4s)-4-(trifluoromethyl)cyclohexyl]-9-thia-4,5,7-triazatricyclo[6.3.0.0^2,6]undeca-1(8),2,5,10-tetraene-10-carboxylic acid] | > 30000 |  |  | 100 to 10000 |  | 
Cn1cc2c3cc(C(=O)NCCOCCOCCNC(=O)OC(C)(C)C)sc3n(-c3ccc(C(F)(F)F)cc3)c2n1 [Compound 88, tert-butyl N-(2-{2-[2-({4-methyl-7-[4-(trifluoromethyl)phenyl]-9-thia-4,5,7-triazatricyclo[6.3.0.0^2,6]undeca-1(8),2,5,10-tetraen-10-yl}formamido)ethoxy]ethoxy}ethyl)carbamate] |  |  | > 30000 |  |  | 88
C[C@H](CO)NC(=O)c1cc2c3cn(C)nc3n(-c3ccc(C(F)F)cn3)c2s1 [Compound 132, 7-[5-(difluoromethyl)pyridin-2-yl]-N-[(2R)-1-hydroxypropan-2-yl]-4-methyl-9-thia-4,5,7-triazatricyclo[6.3.0.0^2,6]undeca-1(8),2,5,10-tetraene-10-carboxamide] |  |  | > 300 |  |  | 
Cn1cc2c3sc(C(=O)NC4CC4)cc3n(-c3ccc(C(F)(F)F)cc3)c2n1 [compound 12] |  |  |  | > 10000 |  | 

More lines, now with the values ahead:

IC50 (SW620 Yap KO cells; [1]) [nM] | IC50 (NCI-H226 cells; group symbols) [nM] | IC50 (YAP-TEAD interaction; [2]) [nM] | IC50 (YAP-TEAD interaction; group symbols) [nM] | IC50 (SW620 Yap KO cells; group symbols) [nM] | IC50 (NCI-H226 cells; printed number) [nM] | SMILES
> 3000 | 1 to 100 | > 9500 |  |  |  | COCCC(CO)NC(=O)c1cc2c3cn(C)nc3n(-c3ccc(C(F)(F)F)cc3)c2s1 (racemic) [Compound 63, N-(1-hydroxy-4-methoxybutan-2-yl)-4-methyl-7-[4-(trifluoromethyl)phenyl]-9-thia-4,5,7-triazatricyclo[6.3.0.0^2,6]undeca-1(8),2,5,10-tetraene-10-carboxamide]
> 3000 | 100 to 1000 |  | 100 to 10000 |  |  | Cn1cc2c3cc(C(=O)N[C@@H](CCO)c4cncs4)sc3n(-c3ccc(C(F)(F)F)cc3)c2n1 (single isomer, unassigned) [Compound 41]
 | 1000 to 10000 | > 9500 |  | 1000 to 10000 |  | Cn1cc2c3cc(C(=O)N[C@H](CCO)c4cncs4)sc3n(-c3ccc(C(F)(F)F)cc3)c2n1 (single isomer, unassigned) [Compound 42]
 | 100 to 1000 | > 300 |  |  |  | COCC[C@@H](CO)NC(=O)c1cc2c3cn(C)nc3n(-c3ccc(C(F)(F)F)cc3)c2s1 (single isomer, unassigned) [Compound 59]
> 3000 | 100 to 1000 | > 300 |  |  |  | Cn1cc2c3cc(C(=O)N=[S@](C)(=O)CCCO)sc3n(-c3ccc(C(F)(F)F)cc3)c2n1 (single isomer, unassigned) [Compound 62]
 |  |  |  |  | 1500 | Cn1cc2c3cc(C(=O)N[C@H](CCO)c4ccccn4)sc3n(-c3ccc(C(F)(F)F)cc3)c2n1 (single isomer, unassigned) [Compound 90]
> 30000 | 1 to 100 |  | 10 to 100 |  |  | Cn1ccc([C@@H](CO)NC(=O)c2cc3c4cn(C)nc4n(-c4ccc(C(F)(F)F)cc4)c3s2)n1 (single isomer, unassigned) [Compound 130]
 | 1000 to 10000 |  | > 10000 |  |  | Cn1nc2c3sc(C(=O)NC(CO)c4ccccn4)cc3n(-c3ccc(C(F)(F)F)cc3)c2n1 (stereo not shown) [Compound 4, N-[2-hydroxy-1-(pyridin-2-yl)ethyl]-4-methyl-7-[4-(trifluoromethyl)phenyl]-11-thia-3,4,5,7-tetraazatricyclo[6.3.0.0^2,6]undeca-1(8),2,5,9-tetraene-10-carboxamide]
> 30000 | 1 to 100 |  | 1 to 10 |  |  | Cn1cc2c3cc(C(=O)O)sc3n(-c3ccc(C(F)(F)F)cc3)c2n1 [Compound 19, 4-methyl-7-[4-(trifluoromethyl)phenyl]-9-thia-4,5,7-triazatricyclo[6.3.0.0^2,6]undeca-1(8),2,5,10-tetraene-10-carboxylic acid]
 | 1 to 100 |  | 10 to 100 |  |  | CNC(=O)c1cc2c3cn(C)nc3n(-c3ccc(C(F)(F)F)cc3)c2s1 [Compound 32, N,4-dimethyl-7-[4-(trifluoromethyl)phenyl]-9-thia-4,5,7-triazatricyclo[6.3.0.0^2,6]undeca-1(8),2,5,10-tetraene-10-carboxamide]

— patent US20260159525A1, “TRICYCLIC HETEROCYCLES” (Merck Patent GmbH, priority 2021, published 2026)
